Measured values reported in US8222487B2, “Application of ERF genes from Bupleurum kaoi” (National Tsing Hua University, priority 2009, dated 2012).

Experiments:
[1] = tested on: B. kaoi adventitious roots; experiment: Fresh weight and appearance of adventitious roots after MeJA; assay type: cell-based, Bupleurum kaoi
Protocol: FIG. 1 Effect of MeJA on fresh weight and appearance of B. kaoi adventitious roots. (A) Four weeks after subculture, the nutrient medium of B. kaoi adventitious roots was refreshed. MeJA (500 μM) was applied 2 weeks after refreshment. The fresh weights of adventitious roots were measured at 13 time points after MeJA treatment as indicated. (B) Adventitious roots treated with MeJA began to show dark brownish pigmentation after 2 weeks. Each panel is a representative of the adventitious roots at the indicated time points. The left and right flasks for each sub-panel indicate the control and MeJA treated adventitious roots, respectively. (C) H2O2 level and (D) MDA level were measured at the indicated time. Vertical bars indicate S.E. of the mean for n=3.
Adventitious root cultures were induced from the roots of germ-free seedlings of B. kaoi and were subcultured every 6 weeks by adding 0.2 g roots to a 125 ml flask containing 50 ml of B5 liquid medium supplemented with 2 mg 1^−1 NAA. Cultures were shaken using a rotary shaker at 100 rpm at 25° C. in the dark. To quantify the effect of MeJA on saikosaponin level, adventitious roots were treated with 500 and 1000 μM MeJA 2 weeks after subculture. Total saikosaponin was measured 2 weeks after MeJA treatment. […]

[2] = tested on: B. kaoi adventitious roots; experiment: qRT-PCR of MeJA-induced gene transcripts in adventitious roots; assay type: cell-based, Bupleurum kaoi; conditions: 500 μM MeJA
Protocol: Adventitious root cultures were induced from the roots of germ-free seedlings of B. kaoi and were subcultured every 6 weeks by adding 0.2 g roots to a 125 ml flask containing 50 ml of B5 liquid medium supplemented with 2 mg 1^−1 NAA. Cultures were shaken using a rotary shaker at 100 rpm at 25° C. in the dark. To quantify the effect of MeJA on saikosaponin level, adventitious roots were treated with 500 and 1000 μM MeJA 2 weeks after subculture. Total saikosaponin was measured 2 weeks after MeJA treatment. To monitor expression of MeJA-responsive genes, the nutrient medium was refreshed 4 weeks after subculture and MeJA (500 μM) was applied 2 weeks after refreshment. Roots were harvested at 13 time points (5 min; 1, 2, 8, 24 hours; 2, 4, 6, 8 days; 2, 3, 4, 5 weeks) after the addition of the MeJA.
Total cellular RNA was extracted as described by Chang et al. (Chang et al., Plant Mol. Biol. (1993) 693-699) with some modifications. Three to five grams of tissue was frozen in liquid nitrogen and ground to a fine powder with mortar and pestle. The powder was added to 15 ml of prewarmed (65° C.) extraction buffer (2%, v/v hexadecyltrimethylammonium bromide (CTAB), 2%, v/v polyvinylpyrrolidinone K 30 (PVP), 100 mM Tris-HCl, pH 8.0, 25 mM EDTA, 2 M NaCl, 0.5 mg ml^−1 spermidine, 2% β-mercaptoethanol), and mixed completely by vigorous shaking. The mixture was extracted twice with an equal volume of chloroform:isoamyl alcohol (24:1). The RNA was precipitated by adding ¼ volume of cold 10 M LiCl to the aqueous phase and held for 12 to 18 h at −20° C. After centrifugation at 19,800×g at 4° C., the RNA was dissolved in 500 μl sterile DEPC H2O. The resuspended RNA was reextracted with chloroform:isoamyl alcohol (24:1). Three volumes of 100% ethanol and 1/10 volume of 3 M sodium acetate (pH 5.2) were added to the aqueous phase, and the solution was precipitated with liquid nitrogen for 15 min The RNA was spun down at 19,800×g for 30 min at 4° C. and washed with 80% ethanol. The dried pellet was resuspended in sterile DEPC H2O.
Each RNA sample of 10 μg in 9 μl sterile DEPC H2O and 1 μl oligo-d(T)18 primer (100 μM) was denatured at 90° C. for 5 min and chilled on ice for 10 min Then 4μ5× reaction buffer (250 mM Tris-HCl, pH 8.0, 375 mM KCl, 15 mM MgCl2), 2 μl 10 mM dNTP, 2 μl 100 mM dithiothreitol (DTT), and 0.5 μl RNasin ribonuclease inhibitor (40 U μl^−1, Promega) were added and incubated at 37° C. for 10 min. After the addition of 1.5 μl Moloney murine leukemia virus (MMLV) reverse transcriptase (200 U μl^−1, Gibco BRL), the reaction was carried out at 37° C. for 90 min, 95° C. for 5 min, then chilled on ice. qRT-PCR reactions were performed with a SYBR Green PCR Master Mix (Applied Biosystems) in a 7500 Real-Time PCR System (Applied Biosystems) using primers designed with Primer Express 2.0 Software (Applied Biosystems). Each reaction was performed in triplicate, and contained 4 μl of a 1:1000 dilution of synthesized cDNA, primers to a final concentration of 100 nM each, 5 μl of the SYBR Green PCR Master mix and sterile deionized H2O to a total volume of 10 μl. PCR reactions were carried out at 50° C. for 2 min, 95° C. for 10 min, 40 cycles of 95° C. for 15 s and 60° C. for 1 min. The specificity of the amplified products was evaluated by analysis of the dissociation curves generated by the equipment. Non-template controls were prepared to confirm absence of contamination. The ratio between the relative amounts of the target gene and the endogenous control gene, in the qRT-PCR reactions, was determined based on the 2^−ΔΔCt method. The target gene expression level was plotted as log10 RQ (RQ=2^−ΔΔCt).

CC/C=C\CC1C(=O)CCC1CC(=O)OC (stereo not drawn) [MeJA, Methyl jasmonate]
Appearance of roots (pigmentation) ([1]; 500 μM MeJA, 2 weeks later, compared to control): marked pigmentation
Growth of adventitious roots (fresh weight) ([1]; 8 days after 500 μM MeJA treatment): retarded
Peroxidase AM409285 transcripts increase ([2]; 2 weeks): 37 fold
BkGST1 (AM409308) transcripts increase ([2]; 5 min): 3 fold
BkGST2 (AM409289) transcripts activation ([2]; 5 min): 6 fold
B. kaoi PAL (AM409299) transcripts increase ([2]; 1 h): 3 fold
BkERF1.2 (AM409280) transcripts increase ([2]; 1 h): 133 fold
Peroxidase AM409296 transcripts increase ([2]; 1 h): 7 fold
Phospholipase D alpha 1 (AM409303) transcripts induction ([2]; 1 h): 6 fold
Trypsin protease inhibitor AM409305 transcripts increase ([2]; 1 h): 4 fold
ACO gene (AM409282) induction ([2]; 2 h): 5 fold
BkAOC (AM409312) mRNA level induction ([2]; 2 h): 9 fold
BkERF1.1 (AM409278) transcripts increase ([2]; 2 h): 41 fold
IAA-amino acid hydrolase (AM409294) transcripts increase ([2]; 2 h): 50 fold
PIN (AM409287) transcripts increase ([2]; 2 h): 166 fold
Prephenate dehydratase (AM409309) transcripts induction ([2]; 2 h): 7 fold
Trypsin protease inhibitor AM409295 transcripts increase ([2]; 2 h): 5 fold
BkGST2 (AM409289) transcripts increase ([2]; 8 h): 161 fold
Peroxidase AM409285 transcripts increase ([2]; 8 h): 5 fold
Protease inhibitor (AM409279) transcripts increase ([2]; 8 h): 4 fold
Pyruvate kinase gene (AM409311) induction ([2]; 8 h): 3 fold
UDP-glucosyltransferase gene (AM409293) induction ([2]; 8 h): 98 fold
Serine protease inhibitor (AM409301) mRNA level increase ([2]; 24 h): 3 fold
Trypsin protease inhibitor AM409295 transcripts increase ([2]; 2 days): 2051 fold
IAA-amido synthase gene (AM409281) induction ([2]; 4 days): 5 fold
IAA-amino acid hydrolase (AM409294) transcripts increase ([2]; 4 days): 139 fold
Pyruvate kinase gene (AM409311) induction ([2]; 4 days): 9 fold
B. kaoi PAL (AM409299) transcripts increase ([2]; 6 days): 23 fold
Basic endochitinase gene (AM409300) induction ([2]; 6 days): 726 fold
BkSDR (AM409290) transcripts increase ([2]; 6 days): 4 fold
Glycosyl hydrolase family 18 protein gene (AM409313) induction ([2]; 6 days): 61 fold
LOX (AM409291) transcript induction ([2]; 6 days): 4404 fold
PIN (AM409287) transcripts increase ([2]; 6 days): 178 fold
Peroxidase AM409296 transcripts increase ([2]; 6 days): 114 fold
Phospholipase D alpha 1 (AM409303) transcripts induction ([2]; 6 days): 44 fold
Prephenate dehydratase (AM409309) transcripts induction ([2]; 6 days): 27 fold
Trypsin protease inhibitor AM409305 transcripts increase ([2]; 6 days): 2944 fold
Zinc finger C2H2 type gene (AM409288) transcripts induction ([2]; 6 days): 118 fold
ACO gene (AM409282) induction ([2]; 8 days): 19 fold
BkGST1 (AM409308) transcripts increase ([2]; 8 days): 17 fold
IAA-amido synthase gene (AM409281) induction ([2]; 8 days): 10 fold
MYB gene (AM409302) transcripts increase ([2]; 8 days): 53 fold
OPR2 (AM409310) expression level induction ([2]; 8 days): 19 fold
Protease inhibitor (AM409279) transcripts increase ([2]; 8 days): 90 fold
Serine protease inhibitor (AM409301) mRNA level increase ([2]; 8 days): 81 fold
Plant defensin (AM409284) transcripts increase ([2]; after 2 weeks): 5 fold
Enoyl-CoA hydratase gene (AM409286) induction ([2]; primarily in 4-8 days): 6 fold
β-amyrin synthase gene (β-AS, AM421813) transcript level increase ([2]; time not stated): 2 fold
